We go through one compound from patent US20250222050A1, “Chlorella and Corn Leaf Extract Compositions, Their Production, and Methods of Use” (Unigen, Inc., priority 2024, published 2025).

Format in all cases: in vivo
Assay [1] concerns BALB/C mice. Description: 60-minute direct effect (direct sleep) test, no pentobarbital. On the procedure:
Purpose bred BALB/C mice (n=405; male, 20 g-22 g) were purchased from Beijing Hua Fukang biological technologies Inc (Beijing, China). The study was carried out at Testing Center for the functions of Health Foods, College of Arts and science of Beijing Union University (Beijing, China). Mice were kept in specific pathogen free, temperature-controlled room and fed with rodent diet purchased from Beijing Hua Fukang biological technologies Inc (Beijing, China). Three consecutive studies were carried out. Mice were randomly assigned into 9 groups for each experiment. Fifteen mice were allocated in each group. The first experiment was set to determine the sleep incidence effect of test materials. The second experiment was designed to detect the total sleep time under the hypnotic subthreshold dose of pentobarbital sodium (Lot #: 34E10320, Beijing Dingguo Changsheng Biotechnology Co. Ltd). The third experiment was set to detect sleep latency induced by barbital sodium (Lot #: 527B051, Merck).
Zea mays (corn) leaf extract standardized at not less than 0.2% 6-MBOA (Lot #: FP210105-01) and Chlorella Powder (Lot #: 222A) were suspended with sterile water. Melatonin purchased from By-Health Co. Ltd. (Beijing, China) was used as a reference compound in each study. All mice were orally administrated with test materials in a volume of 20 mL/kg BW/day. Study lasted for 31 days. […]

In assay [2] the test system is BALB/C mice. In words: Sleep latency induced by barbital sodium.
Procedure: Purpose bred BALB/C mice (n=405; male, 20 g-22 g) were purchased from Beijing Hua Fukang biological technologies Inc (Beijing, China). The study was carried out at Testing Center for the functions of Health Foods, College of Arts and science of Beijing Union University (Beijing, China). Mice were kept in specific pathogen free, temperature-controlled room and fed with rodent diet purchased from Beijing Hua Fukang biological technologies Inc (Beijing, China). Three consecutive studies were carried out. Mice were randomly assigned into 9 groups for each experiment. Fifteen mice were allocated in each group. […] The third experiment was set to detect sleep latency induced by barbital sodium (Lot #: 527B051, Merck).
Mice were intraperitoneally injected with 240 mg/kg barbital sodium (0.2 mL/20 g body weight), 15 min after the last test material administration. Sleep latency was recorded and the difference in sleep time between the tested substance groups and vehicle control were determined. […]
Assay [3] relates to BALB/C mice. In words: Sleep incidence under hypnotic subthreshold dose of pentobarbital. Conditions: mice n=15, oral 1 mg/kg; 32 mg/kg pentobarbital i.p. 15 min after last dose.
Procedure: The numbers of mice that lost turnover to the right side over 1 min following injection of pentobarbital were recorded. The incidence of sleeping mice was analyzed to compare the difference between the tested substance groups and vehicle control. All the experiments were conducted at night.
Assay [4] deals with BALB/C mice. In words: Sleep time (duration) after pentobarbital sodium. To be noted: oral 1 mg/kg, 46 mg/kg pentobarbital sodium i.p. 15 min after last dose.
Procedure: Purpose bred BALB/C mice (n=405; male, 20 g-22 g) were purchased from Beijing Hua Fukang biological technologies Inc (Beijing, China). […] Mice were kept in specific pathogen free, temperature-controlled room and fed with rodent diet purchased from Beijing Hua Fukang biological technologies Inc (Beijing, China). Three consecutive studies were carried out. Mice were randomly assigned into 9 groups for each experiment. Fifteen mice were allocated in each group.
The amount of time spent sleeping was determined by injecting mice with 46 mg/kg pentobarbital sodium, intraperitoneally, 15 minutes after administration of the last dose of the test materials. The sleep time of each mouse was recorded and the difference of sleep time between tested materials and vehicle control were analyzed.

In the assay with BALB/C mice [1] (mice n=15, oral 1 mg/kg, 1 h after administration), `COc1ccc2[nH]cc(CCNC(C)=O)c2c1` [Melatonin] yielded a Numbers of sleeping of 0. Further, the “Sleep Time” value in the assay on BALB/C mice [1] (mice, oral 1 mg/kg) stood at 0 min. Besides, the “sleep latency versus vehicle control (in words)” value with BALB/C mice [2] (melatonin 1 mg/kg, chlorella 5,000 mg/kg, combination 250 + 5,000 mg/kg) is recorded as “significantly shortened”. For the same compound, the “Latent Time (sleep onset latency)” value in the assay on BALB/C mice [2] (mice, oral 1 mg/kg, 240 mg/kg barbital sodium i.p. 15 min after last dose) amounted to 37.8 ± 12.8 min. For the same compound, the “Incidence (sleep incidence)” value in the assay with BALB/C mice [3] turned out to be 60%. The “Sleep Time (sleep duration)” value in the assay on BALB/C mice [4] is 59.7 ± 13.0 min.
